From PubChem BioAssay AID256 (DTP/NCI, 2004)
Several values for one entry are separate records, joined by “and”; a condition that tells them apart may be missing. Equal values may be shown once. Toxic doses and inconclusive results are not listed.

Test system: CD2F1 mice, L1210 leukemia ip, survival T/C
Assay: NCI In Vivo Anticancer Drug Screen. Data for tumor model L1210 Leukemia (intraperitoneal) in CD2F1 (CDF1) mice
Settings: higher = longer survival
How it was run: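 Activity against a transplanted murine tumor was judged by comparing the compound group with a vehicle group. The outcome in the treated animals was divided by that in the controls.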

[1] = endpoint: median survival time, dose: 50.0 mg/kg/injection, schedule: Q04DX002 (ip), vehicle: saline with Tween-80
[2] = endpoint: median survival time, dose: 100.0 mg/kg/injection, schedule: Q04DX002 (ip), vehicle: saline with Tween-80
[3] = endpoint: mean survival time, dose: 100.0 mg/kg/injection, schedule: Q01DX001 (ip), vehicle: saline with Tween-80
[4] = endpoint: mean survival time, dose: 200.0 mg/kg/injection, schedule: Q01DX001 (ip), vehicle: saline with Tween-80
[5] = endpoint: mean survival time, dose: 400.0 mg/kg/injection, schedule: Q01DX001 (ip), vehicle: saline with Tween-80
[6] = endpoint: mean survival time, dose: 50.0 mg/kg/injection, schedule: Q01DX001 (ip), vehicle: saline
[7] = endpoint: mean survival time, dose: 100.0 mg/kg/injection, schedule: Q01DX001 (ip), vehicle: saline
[8] = endpoint: mean survival time, dose: 100.0 mg/kg/injection, schedule: Q01DX009 (ip), vehicle: saline with Tween-80
[9] = endpoint: mean survival time, dose: 100.0 mg/kg/injection, schedule: Q04DX003 (ip), vehicle: saline
[10] = endpoint: mean survival time, dose: 200.0 mg/kg/injection, schedule: Q01DX009 (ip), vehicle: saline with Tween-80
[11] = endpoint: mean survival time, dose: 400.0 mg/kg/injection, schedule: Q01DX009 (ip), vehicle: saline with Tween-80
[12] = endpoint: mean survival time, dose: 100.0 mg/kg/injection, schedule: Q04DX003 (ip), vehicle: saline with Tween-80
[13] = endpoint: mean survival time, dose: 200.0 mg/kg/injection, schedule: Q04DX003 (ip), vehicle: saline with Tween-80
[14] = endpoint: mean survival time, dose: 400.0 mg/kg/injection, schedule: Q04DX003 (ip), vehicle: saline with Tween-80
[15] = endpoint: mean survival time, dose: 50.0 mg/kg/injection, schedule: Q01DX009 (ip), vehicle: saline
[16] = endpoint: mean survival time, dose: 100.0 mg/kg/injection, schedule: Q01DX009 (ip), vehicle: saline
[17] = endpoint: mean survival time, dose: 200.0 mg/kg/injection, schedule: Q01DX009 (ip), vehicle: saline
[18] = endpoint: mean survival time, dose: 25.0 mg/kg/injection, schedule: Q04DX002 (ip), vehicle: saline with Tween-80

With CCSC(=S)S the T/C (endpoint: mean survival time, dose: 75.0 mg/kg/injection, schedule: Q04DX003 (ip), vehicle: saline) was 104 % of control, the T/C (endpoint: mean survival time, dose: 150.0 mg/kg/injection, schedule: Q04DX003 (ip), vehicle: saline) was 98 % of control and the T/C (endpoint: mean survival time, dose: 300.0 mg/kg/injection, schedule: Q04DX003 (ip), vehicle: saline) was 104 % of control.
Cc1ccc(S(=O)(=O)N/N=C/Cc2c(C(C)C)cc(C(C)C)cc2C(C)C)cc1 was tested, and the T/C [1] was 100 % of control, the T/C [2] was 100 % of control and the T/C (endpoint: median survival time, dose: 200.0 mg/kg/injection, schedule: Q04DX002 (ip), vehicle: saline with Tween-80) was 110 % of control. The T/C (endpoint: median survival time, dose: 400.0 mg/kg/injection, schedule: Q04DX002 (ip), vehicle: saline with Tween-80) was 100 % of control.
With O=C(Oc1ccccc1)C(O)CO (stereo not drawn) the T/C [3] was 104 % of control, the T/C [4] was 101 % of control and the T/C [5] was 97 % of control.
In the case of COC(=O)c1cc(NC(=O)Nc2cc([N+](=O)[O-])ccc2Cl)cc(C(=O)OC)c1, the T/C [6] is reported as 92 % of control, the T/C [7] is reported as 86 % of control and 94 % of control and the T/C [8] is reported as 89 % of control and 95 % of control. The T/C (endpoint: mean survival time, dose: 100.0 mg/kg/injection, schedule: Q04DX002 (ip), vehicle: saline) was 96 % of control, the T/C [9] was 95 % of control and the T/C (endpoint: mean survival time, dose: 200.0 mg/kg/injection, schedule: Q01DX001 (ip), vehicle: saline) was 89 % of control. The T/C [10] was 95 % of control and 102 % of control, the T/C (endpoint: mean survival time, dose: 200.0 mg/kg/injection, schedule: Q04DX002 (ip), vehicle: saline) was 93 % of control and 107 % of control and the T/C (endpoint: mean survival time, dose: 200.0 mg/kg/injection, schedule: Q04DX003 (ip), vehicle: saline) was 102 % of control. For the same compound, the T/C (endpoint: mean survival time, dose: 400.0 mg/kg/injection, schedule: Q01DX001 (ip), vehicle: saline) was 88 % of control, the T/C [11] was 102 % of control and 103 % of control and the T/C (endpoint: mean survival time, dose: 400.0 mg/kg/injection, schedule: Q04DX002 (ip), vehicle: saline) was 91 % of control and 96 % of control. For the same compound, the T/C (endpoint: mean survival time, dose: 400.0 mg/kg/injection, schedule: Q04DX003 (ip), vehicle: saline) was 96 % of control.
In the case of Clc1ccc([I+]c2ccc(Cl)cc2)cc1, the T/C (endpoint: median survival time, dose: 25.0 mg/kg/injection, schedule: Q04DX002 (ip), vehicle: saline with Tween-80) is reported as 102 % of control, the T/C [1] is reported as 98 % of control and the T/C [2] is reported as 91 % of control.
For CC1(C)Oc2nc[nH]c(=O)c2C1c1ccccc1 (stereo not drawn), the T/C [8] was 115 % of control, the T/C [12] was 101 % of control and the T/C [10] was 107 % of control. For the same compound, the T/C [13] was 101 % of control, the T/C [11] was 98 % of control and the T/C [14] was 98 % of control.
CCOC(=O)Nc1cc(NCCc2ccccc2)c(N)c(N)n1 was tested, and the T/C [6] was 101 % of control and the T/C [7] was 92 % of control.
With [Cl][Pt+2][Cl].[NH-]CC(O)C[NH-] the T/C (endpoint: median survival time, dose: 5.0 mg/kg/injection, schedule: Q04DX003 (ip), vehicle: saline) was 108 % of control, the T/C (endpoint: median survival time, dose: 10.0 mg/kg/injection, schedule: Q04DX003 (ip), vehicle: saline) was 103 % of control and the T/C (endpoint: median survival time, dose: 20.0 mg/kg/injection, schedule: Q04DX003 (ip), vehicle: saline) was 105 % of control. For the same compound, the T/C (endpoint: median survival time, dose: 40.0 mg/kg/injection, schedule: Q04DX003 (ip), vehicle: saline) was 108 % of control.
With CSCCC(NC(=O)COc1ccc(Cl)cc1Cl)C(=O)O (stereo not drawn) the T/C (endpoint: mean survival time, dose: 50.0 mg/kg/injection, schedule: Q01DX009 (ip), vehicle: Klucel (hydroxypropylcellulose) (HPC)) was 100 % of control, the T/C (endpoint: mean survival time, dose: 100.0 mg/kg/injection, schedule: Q01DX009 (ip), vehicle: Klucel (hydroxypropylcellulose) (HPC)) was 89 % of control and the T/C (endpoint: mean survival time, dose: 200.0 mg/kg/injection, schedule: Q01DX009 (ip), vehicle: Klucel (hydroxypropylcellulose) (HPC)) was 91 % of control.
With COC(=O)Nc1nc2ccc(C3(c4ccc(F)cc4)OCCO3)cc2[nH]1 the T/C (endpoint: mean survival time, dose: 1.56 mg/kg/injection, schedule: Q01DX009 (ip), vehicle: saline) was 96 % of control, the T/C (endpoint: mean survival time, dose: 3.12 mg/kg/injection, schedule: Q01DX009 (ip), vehicle: saline) was 91 % of control and the T/C (endpoint: mean survival time, dose: 6.25 mg/kg/injection, schedule: Q01DX009 (ip), vehicle: saline) was 90 % of control. The T/C (endpoint: mean survival time, dose: 12.5 mg/kg/injection, schedule: Q01DX009 (ip), vehicle: saline with Tween-80) was 104 % of control, the T/C (endpoint: mean survival time, dose: 12.5 mg/kg/injection, schedule: Q01DX009 (ip), vehicle: saline) was 94 % of control and 104 % of control and the T/C (endpoint: mean survival time, dose: 25.0 mg/kg/injection, schedule: Q01DX009 (ip), vehicle: saline with Tween-80) was 106 % of control. For the same compound, the T/C (endpoint: mean survival time, dose: 25.0 mg/kg/injection, schedule: Q01DX009 (ip), vehicle: saline) was 105 % of control, the T/C (endpoint: mean survival time, dose: 40.0 mg/kg/injection, schedule: Q04DX003 (ip), vehicle: saline) was 120 % of control and the T/C (endpoint: mean survival time, dose: 50.0 mg/kg/injection, schedule: Q04DX003 (ip), vehicle: saline) was 115 % of control. The T/C (endpoint: mean survival time, dose: 60.0 mg/kg/injection, schedule: Q04DX003 (ip), vehicle: saline) was 151 % of control and 152 % of control, the T/C (endpoint: mean survival time, dose: 80.0 mg/kg/injection, schedule: Q04DX003 (ip), vehicle: saline) was 181 % of control and the T/C [9] was 181 % of control. The T/C (endpoint: mean survival time, dose: 150.0 mg/kg/injection, schedule: Q01DX009 (oral), vehicle: saline) was 156 % of control, the T/C [10] was 87 % of control and the T/C (endpoint: mean survival time, dose: 200.0 mg/kg/injection, schedule: Q01DX009 (oral), vehicle: saline) was 156 % of control.
With O=S(=O)(F)c1ccc2nc(-c3cccc(Sc4ccccc4)c3)cc(Cl)c2c1 the T/C [8] was 97 % of control, the T/C [12] was 97 % of control and the T/C [10] was 93 % of control. The T/C [13] was 90 % of control, the T/C [11] was 97 % of control and the T/C [14] was 96 % of control.
With CNCCN1CCC(Cc2ccccc2)CC1 the T/C [15] was 102 % of control, the T/C [16] was 100 % of control and the T/C [17] was 106 % of control.
COC1OC2COc3ccccc3OC2C(NC#N)C1OC(C)=O (stereo not drawn) was tested, and the T/C [3] was 101 % of control, the T/C [4] was 100 % of control and the T/C [5] was 100 % of control.
For S=c1sc2ccccc2n1CN1CCOCC1, the T/C (endpoint: median survival time, dose: 12.5 mg/kg/injection, schedule: Q01DX009 (ip), vehicle: saline with Tween-80) was 97 % of control and 104 % of control, the T/C (endpoint: median survival time, dose: 25.0 mg/kg/injection, schedule: Q01DX009 (ip), vehicle: saline with Tween-80) was 100 % of control and the T/C (endpoint: median survival time, dose: 50.0 mg/kg/injection, schedule: Q01DX009 (ip), vehicle: saline with Tween-80) was 101 % of control and 106 % of control. The T/C (endpoint: median survival time, dose: 100.0 mg/kg/injection, schedule: Q01DX009 (ip), vehicle: saline with Tween-80) was 101 % of control and 108 % of control and the T/C (endpoint: median survival time, dose: 200.0 mg/kg/injection, schedule: Q01DX009 (ip), vehicle: saline with Tween-80) was 98 % of control and 100 % of control.
Cc1ccc(C(C)NC2=NCCO2)c(C)c1 (stereo not drawn) was tested, and the T/C [18] was 91 % of control and the T/C (endpoint: mean survival time, dose: 50.0 mg/kg/injection, schedule: Q04DX002 (ip), vehicle: saline with Tween-80) was 95 % of control.
With O=C(c1ccccc1)C(O)(CC(c1ccccc1)[P+](c1ccccc1)(c1ccccc1)c1ccccc1)c1ccccc1 (stereo not drawn) the T/C (endpoint: mean survival time, dose: 6.25 mg/kg/injection, schedule: Q01DX001 (ip), vehicle: saline with Tween-80) was 103 % of control, the T/C (endpoint: mean survival time, dose: 12.5 mg/kg/injection, schedule: Q01DX001 (ip), vehicle: saline with Tween-80) was 96 % of control and the T/C (endpoint: mean survival time, dose: 25.0 mg/kg/injection, schedule: Q01DX001 (ip), vehicle: saline with Tween-80) was 100 % of control.
In the case of O=C(OCc1ccccc1)C1CCCN1C(=O)C(CSC(c1ccccc1)(c1ccccc1)c1ccccc1)NC(c1ccccc1)(c1ccccc1)c1ccccc1 (stereo not drawn), the T/C [15] is reported as 97 % of control, the T/C [16] is reported as 97 % of control and the T/C [17] is reported as 95 % of control. For the same compound, the T/C (endpoint: mean survival time, dose: 400.0 mg/kg/injection, schedule: Q01DX009 (ip), vehicle: saline) was 95 % of control.
NC(CSS(=O)(=O)O)=NCC1CCCCC1 was tested, and the T/C (endpoint: mean survival time, dose: 6.25 mg/kg/injection, schedule: Q04DX002 (ip), vehicle: saline with Tween-80) was 101 % of control and 107 % of control, the T/C (endpoint: mean survival time, dose: 12.5 mg/kg/injection, schedule: Q04DX002 (ip), vehicle: saline with Tween-80) was 104 % of control and 112 % of control and the T/C [18] was 96 % of control.
With COc1ccc(OC)c(NC(=O)C2CC2)c1 the T/C [8] was 97 % of control, the T/C [10] was 102 % of control and the T/C [11] was 98 % of control.
